Our source for the IC50 values is patent publication US8455528B2, “Imidazole derivatives useful as inhibitors of FAAH” (Merck Sharp & Dohme Corp., priority 2008, dated 2013).

Counter-ions that a name gives are not always drawn.

One assay addresses T1, Human FAAH (Homo sapiens, UniProt O00519).
T1 construct: The full length FAAH was subcloned into the mammalian expression vector, pcDEF.neo; expressed in transfected cells
T1 sequence (O00519 1-579): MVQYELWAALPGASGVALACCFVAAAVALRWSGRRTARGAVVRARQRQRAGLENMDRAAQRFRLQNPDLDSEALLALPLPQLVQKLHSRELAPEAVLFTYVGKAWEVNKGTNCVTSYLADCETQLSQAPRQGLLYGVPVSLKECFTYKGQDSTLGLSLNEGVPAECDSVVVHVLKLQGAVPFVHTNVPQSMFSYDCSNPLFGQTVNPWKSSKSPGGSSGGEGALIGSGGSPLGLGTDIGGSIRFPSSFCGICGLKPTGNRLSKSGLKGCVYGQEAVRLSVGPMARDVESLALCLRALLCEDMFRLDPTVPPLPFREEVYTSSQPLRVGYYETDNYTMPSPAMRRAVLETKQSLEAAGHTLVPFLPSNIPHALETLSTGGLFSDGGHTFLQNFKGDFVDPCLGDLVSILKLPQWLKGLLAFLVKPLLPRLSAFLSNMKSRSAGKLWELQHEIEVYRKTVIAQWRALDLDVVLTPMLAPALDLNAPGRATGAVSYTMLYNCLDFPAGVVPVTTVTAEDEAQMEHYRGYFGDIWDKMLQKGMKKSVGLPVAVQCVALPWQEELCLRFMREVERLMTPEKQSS
In words: Human FAAH lysate assay (CHO cell lysate, AAMCA fluorescent substrate). It is filed as biochemical. The following applies: FAAH inhibition, CHO cell lysate expressing human FAAH; read-out: Human Lysate. The text has this:
To assist in assay development stable cell lines for human, murine and rat full length FAAH were developed. Human FAAH cDNA (Accession No: NM-001441.1) was purchased from Origene (Rockville, Md.). The full length FAAH was subcloned into the mammalian expression vector, pcDEF.neo, using XbaI and EcoRI restriction sites and used for stable cell line generation. CHO cells expressing FAAH were used to prepare either crude cell lysate or microsome fractions. To harvest cells, tissue culture media was decanted, the monolayer washed three times with Ca^++Mg^++ free PBS and cells recovered after 15 min in enzyme free dissociation media (Millipore Corp, Billerica, Mass.). Cells were collected by centrifuging at 2000 rpm for 15 min. and the cell pellet re-suspended with 50 mM HEPES (pH 7.4) containing 1 mM EDTA and the protease inhibitors aprotinin (1 mg/ml) and leupeptin (100 μM). […] The pellet containing FAAH-enriched microsomes was re-suspend in 50 mM HEPES, (pH 7,4) 1 mM EDTA, and any remaining DNA sheared by passage of material through a 23 gauge needle and aliquots of enzyme were store at -80° C. prior to use. […] (American Radiolabeled Chemicals; 1 mCi/ml) with FAAH (Life Sciences (1995), 56, 1999-2005 and Journal of Pharmacology and Experimented Therapeutics (1997), 283, 729-734), Analytical. Biochemistry (2003), 318, 270-5. […] Analytical. Biochemistry (2005). 343, 143-51 […] Fluorescent release as a measure of FAAH activity was monitored by reading the plate in a CytoFluor Multiplate Reader ([…]). Whole cell assay is conducted with cells harvested after rinsing tissue culture flasks three times with Ca^++Mg^++ free PBS, incubating for 10 min in Enzyme free dissociation media and centrifuging for 5 minutes at 1,000 rpm in table top centrifuge. Cells are resuspended in assay buffer at desired cell number in (4×10^4 cells/assay in 96-well format; 1×10^4 cells/assay in 384-well format) and assayed as described. […] The reaction was terminated by addition of 2 volumes of chloroform:methanol (1:1) and mixed by vortexing. […] K., et al. A fluorescence-based assay for fatty acid amide hydrolase compatible with high-throughput screening. Anal. Biochem. 343:143-51 (2005) • Wilson S. J., et l. A high-throughput-compatible assay for determining the activity of fatty acid amide hydrolase. Anal Biochem. 318:270-5 (2003).
As to `Cn1c(-c2ccccc2)nc(Sc2ccc(Cl)cc2)c1-c1ccc(C#N)cc1` [Ex 3, 4-{4-[(4-chlorophenyl)thio]-1-methyl-2-phenyl-1H-imidazol-5-yl}benzonitrile], the IC50 stood at 370 nM.

Still in this assay, the particulars now being: human FAAH lysate; read-out: Human FAAH lysate assay: IC50.
As to `CCn1nccc1-c1nc(-c2ccc(-c3ncon3)cc2)c(Sc2ccc(Cl)cc2)n1C` [Example 141, 3-(4-{5-[(4-chlorophenyl)sulfanyl]-2-(1-ethyl-1H-pyrazol-5-yl)-1-methyl-1H-imidazol-4-yl}phenyl)-1,2,4-oxadiazole], the IC50 is 67.9 nM.

As to `Cn1c(-c2cccs2)nc(-c2ccc(S(C)(=O)=O)cc2)c1Sc1ccc(Cl)cc1` [Example 137, 5-[(4-chlorophenyl)sulfanyl]-1-methyl-4-[4-(methylsulfonyl)phenyl]-2-(thiophen-2-yl)-1H-imidazole], the IC50 is 16.5 nM.

Turning to `Cn1c(-c2cc(C3CC3)on2)nc(-c2ccc(C(C)(C)O)nc2)c1Sc1ccc(Cl)cn1` [Example 148, 2-(5-{5-[(5-chloropyridin-2-yl)sulfanyl]-2-(5-cyclopropylisoxazol-3-yl)-1-methyl-1H-imidazol-4-yl}pyridin-2-yl)propan-2-ol], the IC50 was found to be 91 nM.

Turning to `Cn1cnc(-c2ccc(OC(C)(C)CO)cc2)c1Sc1ccc(Cl)cn1` [Example 125, 5-[(5-chloropyridin-2-yl)thio]-4-[4-(2-hydroxy-1,1-dimethylethoxy)phenyl]-1-methyl-1H-imidazol-3-ium trifluoroacetate], the IC50 stood at 198 nM.

`CC(C)(O)c1ccc(-c2nc3c4ncccc4ccn3c2Sc2ccc(Cl)cc2)cc1` [Example 130, 2-(4-{3-[(4-chlorophenyl)sulfanyl]imidazo[1,2-h][1,7]naphthyridin-2-yl}phenyl)propan-2-ol]: the IC50 worked out at 47.1 nM.

Turning to `Cn1c(I)nc(-c2ccc(S(C)(=O)=O)cc2)c1Sc1ccc(Cl)cc1` [Example 133, 5-[(4-chlorophenyl)thio]-2-iodo-1-methyl-4-[4-(methylsulfonyl)phenyl]-1H-imidazole], the IC50 is 15.6 nM.

On to `Cn1c(-c2ccccn2)nc(-c2ccc(-c3nccs3)cc2)c1Sc1ccc(Cl)cc1` [Example 119, 2-{5-[(4-chlorophenyl)thio]-1-methyl-4-[4-(1,3-thiazol-2-yl)phenyl]-1H-imidazol-2-yl}pyridine], for which the IC50 was 14.3 nM.

As for `Cn1c(-c2ccn(C3CC3)n2)nc(-c2ccc(-c3ncon3)cc2)c1Sc1ccc(Cl)cc1` [Example 144, 3-(4-{5-[(4-chlorophenyl)sulfanyl]-2-(1-cyclopropyl-1H-pyrazol-3-yl)-1-methyl-1H-imidazol-4-yl}phenyl)-1,2,4-oxadiazole], the IC50 is 7.4 nM.

For `Cn1c(C(C)(C)O)nc(-c2ccc(-c3ncon3)cc2)c1Sc1ccc(Cl)cc1` [Example 146, 2-{5-[(4-chlorophenyl)sulfanyl]-1-methyl-4-[4-(1,2,4-oxadiazol-3-yl)phenyl]-1H-imidazol-2-yl}propan-2-ol], the IC50 amounted to 208 nM.

Consider `Cn1c(C2CC2)nc(-c2ccc3nc(C(F)F)ccc3c2)c1Sc1ccc(Cl)cn1` [Example 131, 6-{5-[(5-chloropyridin-2-sulfanyl]-2-cyclopropyl-1-methyl-1H-imidazol-4-yl}-2-difluoromethyl)quinoline], for which the IC50 is 17.9 nM.

With `CCn1ccc(-c2nc(-c3ccc(-c4ncon4)cc3)c(Sc3ccc(Cl)cc3)n2C)n1` [Example 140, 3-4-({5-[(4-chlorophenyl)sulfanyl]-2-(1-ethyl-1H-pyrazol-3-yl)-1-methyl-1H-imidazol-4-yl)phenyl)-1,2,4-oxadiazole], the IC50 was 28.7 nM.

Take `Cn1c(-c2ccccn2)nc(-c2ccc(S(C)(=O)=O)nc2)c1Sc1ccc(Cl)cn1` [Example 100, 5-Chloro-2-({1-methyl-4-[6-(methylsulfonyl)pyridin-3-yl]-2-pyridin-2-yl-1H-imidazol-5-yl}thio)pyridine]: the IC50 stood at 48 nM.

With `CC(C)n1ccc(-c2nc(-c3ccc(-c4ncon4)cc3)c(Sc3ccc(Cl)cc3)n2C)n1` [Example 142, 3-(4-{5-[(4-chlorophenyl)sulfanyl]-1-methyl-2-[1-(propan-2-yl)-1H-pyrazol-3-yl]-1H-imidazol-4-yl}phenyl)-1,2,4-oxadiazole], the IC50 was found to be 15.6 nM.

With `Cn1c(-c2ccccn2)nc(-c2ccc(C(C)(C)O)nc2)c1Sc1ccc(Cl)cc1` [Example 105, 2-(5-{5-[(4-Chlorophenyl)thio]-1-methyl-2-pyridin-2-yl-1H-imidazol-4-yl}pyridin-2-yl)propan-2-ol], the IC50 worked out at 37.8 nM.

Staying with this assay, now noted: human FAAH lysate; read-out: hFAAH lysate IC50.
`Cn1c(-c2ccc(F)cc2)nc(-c2ccc(C(C)(C)O)nc2)c1Sc1ccc(Cl)cc1` [Example 115]: the IC50 amounted to 67 nM.

`Cn1c(-c2ccccn2)nc(-c2ccc(C(C)(C)O)nc2)c1Sc1ccc(F)cc1F` [Example 108]: the IC50 worked out at 33.2 nM.

Turning to `Cn1c(-c2ccccn2)nc(-c2ccc(C(C)(C)O)nc2)c1Sc1ccc(F)cn1` [Example 109], the IC50 came out at 134 nM.

For the molecule `Cn1c(-c2ccccn2)nc(-c2ccc(S(C)(=O)=O)nc2)c1Sc1ccc(F)c(F)c1` [Example 103], the IC50 came to 37.6 nM.

Consider `Cn1c(-c2ccccn2)nc(-c2ccc(S(C)(=O)=O)nc2)c1Sc1ccc(Cl)cc1` [Example 101], for which the IC50 was 6.3 nM.

For `Cn1c(-c2ccccn2)nc(-c2ccc(-c3ccnnc3)cc2)c1Sc1ccc(Cl)cn1` [Example 122], the IC50 was 15.7 nM.

`Cn1c(-c2ncco2)nc(-c2ccc(S(C)(=O)=O)cc2)c1Sc1ccc(Cl)cc1` [Example 139]: the IC50 was determined as 21.2 nM.

On to `Cn1c(-c2ccc(F)c(F)c2)nc(-c2ccc(C(C)(C)O)nc2)c1Sc1ccc(Cl)cc1` [Example 114], for which the IC50 is 87.4 nM.

As to `COc1cnc(Sc2c(-c3ccc(S(C)(=O)=O)nc3)nc(-c3ccccn3)n2C)nc1` [Example 104], the IC50 worked out at 202 nM.

For `Cn1c(-c2ccccn2)nc(-c2ccc(S(C)(=O)=O)nc2)c1Sc1ccc(F)cc1F` [Example 102], the IC50 was 15.4 nM.

As for `Cn1c(-c2nccs2)nc(-c2ccc(S(C)(=O)=O)cc2)c1Sc1ccc(Cl)cc1` [Example 138], the IC50 is 24.8 nM.

Turning to `Cn1c(-c2ccc(F)cc2)nc(-c2ccc(C(C)(C)O)nc2)c1Sc1ccc(Cl)cc1F` [Example 113], the IC50 is 67.9 nM.

Consider `Cn1c(-c2ccccn2)nc(-c2ccc(C(C)(C)O)nc2)c1Sc1ccc(F)c(F)c1` [Example 107], for which the IC50 was determined as 60.2 nM.

Regarding `Cn1c(-c2ccccn2)nc(-c2ccc(-c3cccs3)cc2)c1Sc1ccc(Cl)cc1` [Example 121], the IC50 stood at 18.5 nM.

On to `COc1ccc(-c2nc(-c3ccc(S(C)(=O)=O)cc3)c(Sc3ccc(Cl)cc3)n2C)cn1` [Example 136], for which the IC50 is 122 nM.

On to `Cn1c(-c2ccccn2)nc(-c2ccc(-c3ccsc3)cc2)c1Sc1ccc(Cl)cc1` [Example 117], for which the IC50 came to 8.7 nM.

As for `Cn1c(-c2ccccn2)nc(-c2ccc(C(C)(C)O)nc2)c1Sc1ccc(Cl)cn1` [Example 106], the IC50 worked out at 37.8 nM.

Turning to `Cn1c(-c2ccccn2)nc(-c2ccc(-c3ccncc3)cc2)c1Sc1ccc(Cl)cn1` [Example 118], the IC50 was determined as 7.7 nM.

Turning to `Cn1c(-c2ccsc2)nc(-c2ccc(S(C)(=O)=O)cc2)c1Sc1ccc(Cl)cc1` [Example 135], the IC50 was 25.9 nM.

On to `Cn1c(-c2ccccn2)nc(-c2ccc(C(C)(C)O)nc2)c1Sc1ccc(Cl)cc1F` [Example 110], for which the IC50 was found to be 33.7 nM.
